Earlier results as cited in patent publication US9968093B1, “Development and manufacturing process of powdered additive for its use in coatings or substrates to repel, reduce and control insects” (priority 2016, dated 2018).
Entries after “also recorded” stand apart in the source; their conditions may differ. Read-outs that look alike come from different tables or passages of the source.

Key:
[1] = for Toxicity: toxicity in words
[2] = for Time to decompose (Mean life): aqueous medium; for Stability in aqueous medium, in words: pH as stated in the value

CCOP(=S)(OCC)Oc1ccc2c(C)c(Cl)c(=O)oc2c1 [Coumaphos]
Toxicity [1]: Toxic

CCN(CC)c1nc(C)cc(OP(=S)(OC)OC)n1 [Methyl pirimiphos]
Time to decompose (Mean life) ([2]; pH 5): 7 days | Time to decompose (Mean life) ([2]; pH 8): 5 days

CC1(C)C(C=C(Cl)Cl)C1C(=O)OCc1cccc(Oc2ccccc2)c1 (stereo not shown) [Permethrin]
Stability in aqueous medium, in words [2]: Stable at pH between 5 and 6.

OB(O)O [Boric acid]
Toxicity (group) [1]: Group II | Toxicity [1]: Mildly toxic

CC(COc1ccc(Oc2ccccc2)cc1)Oc1ccccn1 (stereo not shown) [Pyriproxyfen]
Stability in aqueous medium, in words [2]: Stable in a pH range between 4 and 9.

CC1(C)C(C=C(Cl)Cl)C1C(=O)OC(C#N)c1cccc(Oc2ccccc2)c1 (stereo not shown) [Cypermethrin]
Time to decompose (Mean life) ([2]; pH 9): 7 days

CCOP(=S)(OCC)Oc1nc(Cl)c(Cl)cc1Cl [Chlorpyrifos]
Time to decompose (Mean life) ([2]; pH 10): 7 days | Stability in aqueous medium, in words [2]: stable in neutral and lightly

CNC(=O)Oc1cccc2c1OC(C)(C)C2 [Carbofuran]
Toxicity (group) [1]: Group II | Toxicity [1]: Mildly toxic

CC1(C)[C@H](C(=O)O[C@H](C#N)c2cccc(Oc3ccccc3)c2)[C@@H]1C=C(Br)Br [Deltamethrin]
Time to decompose (Mean life) ([2]; pH 7): 0.33 days | Stability in aqueous medium, in words [2]: more stable in medium acid solutions

CCOP(=S)(OCC)Oc1cc(C)nc(C(C)C)n1 [Diazinon]
Time to decompose (Mean life) ([2]; pH 5): 31 days | Time to decompose (Mean life) ([2]; pH 7.5): 185 days | Time to decompose (Mean life) ([2]; pH 9): 136 days

O=C(NC(=O)c1c(F)cccc1F)Nc1ccc(Cl)cc1 [Diflubenzuron]
Stability in aqueous medium, in words [2]: Stable in pH between 5 and 7; also recorded: Hydrolyzed at pH 9

C=CCC1=C(C)C(OC(=O)C2C(C=C(C)C)C2(C)C)CC1=O [D-allethrin]
Time to decompose (Mean life) ([2]; pH 7): 500 days | Time to decompose (Mean life) ([2]; pH 9): (4.3 days) | Stability in aqueous medium, in words [2]: Stable at pH 5 after 31 days

CCOC(=O)CC(SP(=S)(OC)OC)C(=O)OCC (stereo not shown) [Malathion]
Stability in aqueous medium, in words [2]: Quickly hydrolyzed at pHs over 7. The optimal pH
